According to the supplement of paper PMC10307832:

Columns and labels:
Assay in all cases: relative viability (nuclei count vs DMSO), 5 days (fraction); higher = more cells survive
[1] = compound: CN(C)C[C@@H]1CCn2cc(c3ccccc32)C2=C(C(=O)NC2=O)c2cn(c3ccccc23)CCO1 [Ruboxistaurin] + O=C(CCCCCCC(=O)Nc1ccccc1)NO [Vorinostat] (partner 1 µM)
Summary of the method: (§1)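 Nuclei were stained with Hoechst during a one-step fixation (final 0.05% Triton X-100, 1% formaldehyde, 1 ug/ml Hoechst) carried out 5 days after dosing, then counted on 4× images. The cells, lung cancer lines in 1536-well plates, had been dosed by pin tool the day after seeding with one drug alone or a fixed anchor-drug dose plus five library-drug doses (not always all listed) in √10 steps. Relative viability is the nuclei count in treated wells divided by that in vehicle wells, and each value is the median of duplicate plates.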

[2] = compound: CN(C)C[C@@H]1CCn2cc(c3ccccc32)C2=C(C(=O)NC2=O)c2cn(c3ccccc23)CCO1 [Ruboxistaurin] + COc1cc2c(Oc3ccc(NC(=O)C4(C(=O)Nc5ccc(F)cc5)CC4)cc3F)ccnc2cc1OCCCN1CCOCC1 [Foretinib] (partner 0.25 µM)
Summary of the method: as §1

[3] = compound: CN(C)C[C@@H]1CCn2cc(c3ccccc32)C2=C(C(=O)NC2=O)c2cn(c3ccccc23)CCO1 [Ruboxistaurin] + CC(C)C[C@H](NC(=O)[C@H](Cc1ccccc1)NC(=O)c1cnccn1)B(O)O [Bortezomib] (partner 0.002 µM)
Summary of the method: as §1

[4] = compound: CN(C)C[C@@H]1CCn2cc(c3ccccc32)C2=C(C(=O)NC2=O)c2cn(c3ccccc23)CCO1 [Ruboxistaurin] + Cc1cc(Nc2cc(N3CCN(C)CC3)nc(Sc3ccc(NC(=O)C4CC4)cc3)n2)n[nH]1 [Tozasertib] (partner 0.1 µM)
Summary of the method: as §1

[5] = compound: CN(C)C[C@@H]1CCn2cc(c3ccccc32)C2=C(C(=O)NC2=O)c2cn(c3ccccc23)CCO1 [Ruboxistaurin] + CCNC(=O)c1noc(-c2cc(C(C)C)c(O)cc2O)c1-c1ccc(CN2CCOCC2)cc1 [Luminespib] (partner 0.01 µM)
Summary of the method: as §1

Cell Line	relative viability ([1]; first compound 0.08 µM)	relative viability ([1]; first compound 0.8 µM)	relative viability ([1]; first compound 2.53 µM)	relative viability ([1]; first compound 8 µM)	relative viability ([2]; first compound 0.08 µM)	relative viability ([2]; first compound 0.8 µM)	relative viability ([2]; first compound 2.53 µM)	relative viability ([2]; first compound 8 µM)	relative viability ([3]; first compound 0.08 µM)	relative viability ([3]; first compound 0.8 µM)	relative viability ([3]; first compound 2.53 µM)	relative viability ([3]; first compound 8 µM)	relative viability ([4]; first compound 0.08 µM)	relative viability ([4]; first compound 0.8 µM)	relative viability ([4]; first compound 2.53 µM)	relative viability ([4]; first compound 8 µM)	relative viability ([5]; first compound 0.08 µM)	relative viability ([5]; first compound 0.8 µM)	relative viability ([5]; first compound 2.53 µM)	relative viability ([5]; first compound 8 µM)
NCI-H1650	0.676	0.554	0.685	0.569	1.66	1.01	1.31	1.09	0.216	0.192	0.212	0.195	0.435	0.301	0.433	0.3	0.185	0.207	0.189	0.183
NCI-H1651	0.54	0.573	0.611	0.499	1.04	0.772	0.794	0.841	0.975	0.877	0.942	0.958	0.922	0.639	0.8	0.521	1.06	0.835	0.899	0.901
NCI-H1666	0.998	1.1	1.08	1.1	0.986	0.919	0.894	0.871	0.857	0.751	0.806	0.733	0.653	0.571	0.582	0.503	1.03	0.964	1.03	1.08
NCI-H1734	0.861	0.714	0.815	0.624	0.852	0.783	0.922	0.683	1.01	0.781	1.06	0.816	0.282	0.224	0.249	0.243	0.174	0.161	0.179	0.178
NCI-H1755	0.702	0.849	0.856	0.811	0.907	0.903	0.908	0.888	0.976	0.945	0.979	1.02	0.608	0.55	0.555	0.525	0.511	0.328	0.417	0.406
NCI-H1915	0.473	0.526	0.513	0.464	1.05	1.03	1.02	0.899	0.985	0.928	0.985	0.896	0.456	0.397	0.396	0.375	0.765	0.638	0.72	0.565
NCI-H1975	0.802	0.696	0.698	0.682	0.979	1.03	1.05	0.856	0.392	0.311	0.424	0.392	0.851	0.54	0.384	0.189	0.266	0.0934	0.223	0.209
NCI-H1993	0.856	0.711	0.727	0.542	0.941	0.623	0.905	0.691	1.3	0.925	1.01	0.83	0.574	0.541	0.568	0.538	1.06	0.599	0.926	0.887
NCI-H2009	0.794	0.7	0.756	0.821	1.29	1.22	1.28	1.24	1.04	0.941	1.14	1.41	0.765	0.678	0.768	0.473	1.14	1.01	0.984	1.15
NCI-H2023	0.676	0.546	0.667	0.441	1.22	–	0.787	0.693	1.1	0.898	1.06	0.819	0.327	0.256	0.207	0.181	0.679	0.426	0.668	0.344
NCI-H2085	0.914	0.82	0.842	0.815	0.878	0.757	1.28	1.12	1.07	0.987	1.09	1.17	0.846	0.74	0.773	0.797	0.53	0.4	0.49	0.42
NCI-H2087	0.977	0.672	0.723	0.975	1.2	0.934	1.07	0.876	0.794	0.615	0.798	1.04	0.234	0.192	0.241	0.159	0.175	0.215	0.162	0.156
NCI-H2126	0.844	0.636	0.871	0.621	1.14	1.13	1.2	1.12	1.11	1.05	1.18	1.16	0.975	0.803	0.923	0.696	0.961	0.893	0.983	0.893
NCI-H2228	0.924	0.424	0.588	0.559	0.906	0.772	0.86	0.729	1.33	0.708	1.08	0.941	0.317	0.202	0.237	0.187	0.173	0.172	0.125	0.111
NCI-H2347	0.621	0.679	0.65	0.561	0.951	0.798	1.05	0.763	1.25	1.11	0.957	1.02	0.557	0.468	0.614	0.415	0.568	0.373	0.289	0.297
NCI-H2405	1.08	0.988	0.97	0.982	1.07	0.961	0.998	1.01	1.01	1.01	1	0.94	0.764	0.613	0.726	0.722	0.818	0.606	0.804	0.699
